Laboratory results from patent US8158389B2, “Products and methods for in vivo secretion of monatin” (priority 2005, dated 2012).

Columns and labels:
E. coli MG1655 ΔAcrAB = assay: Monatin excretion with 2.5 mM sodium decanoate, E. coli MG1655 ΔAcrAB strains with pUC19, robA, ramA or baeR (24, 30, 48 h); type: cell-based, Escherichia coli
Procedure: Conditions for the treatments included 250 rpm agitation throughout and 37° C. up to induction, then, 30° C. following induction. At 0.30-0.50 OD600 nm, induction of the plasmid genes was initiated. At induction, 1.0 mM IPTG, 0.5% L-arabinose, 0.5 mM pyridoxine hydrochloride, and 0.2 mLs of Balch's vitamins were added. Additions of 10 g/L L-tryptophan, 10 g/L sodium pyruvate, 0.04 mM pyridoxal-5′-phosphate (“PLP”) and 0.2% Tween® 20 (polyoxyethylene 20-sorbitan monolaurate) were made 3 hours following induction. Some treatments included 2.5 mM sodium decanoate addition at 3 hours following induction.
Conditions for the treatments included 250 rpm agitation throughout and 37° C. up to induction, then, 30° C. following induction. At an OD600 nm between 0.30-0.50, induction of the plasmid genes was initiated. At induction, 1.0 mM IPTG, 0.5% L-arabinose, 0.5 mM pyridoxine hydrochloride, and 0.2 mLs of Balch's vitamins were added. Additions of 10 g/L L-tryptophan, 10 g/L sodium pyruvate, 0.04 mM pyridoxal-5′-phosphate (“PLP”) and 0.2% Tween® 20 (polyoxyethylene 20-sorbitan monolaurate) were made 3 hours following induction. Some treatments included 2.5 mM sodium decanoate addition at 3 hours following induction.
Conditions for the treatments included 250 rpm agitation throughout and 37° C. up to induction, then, 30° C. following induction. At 0.35-0.38 OD600 nm, induction of the plasmid genes was initiated. At induction, 1.0 mM IPTG, 0.5% L-arabinose, 0.5 mM pyridoxine hydrochloride, and 0.2 mLs of Balch's vitamins were added. Additions of 10 g/L L-tryptophan, 10 g/L sodium pyruvate, 0.04 mM pyridoxal-5′-phosphate (“PLP”) and 0.2% Tween® 20 (polyoxyethylene 20-sorbitan monolaurate) were made 3.5 hours following induction. At 24 hours after inoculation, another 10 g/L increment of sodium pyruvate was added to each flask. Some treatments included 2.5 mM sodium decanoate addition at 3.5 hours following induction.

E. coli BL21 DE3 = assay: Monatin excretion with sodium decanoate, E. coli BL21 DE3 with or without cysH deletion; type: cell-based, Escherichia coli; conditions: 2.5 mM sodium decanoate, n = 2
Procedure: For inoculum, the E. coli strains BL21 DE3 aspC proA pET32 and BL21 DE3 ΔcysH: : aspCproA pET32 were grown overnight at 37° C. and 250 rpm in Luria-Bertani (“LB”) medium with 100 μg/mL ampicillin.
For the experimental treatments, Trp-1+glucose medium, a minimal medium that has been used for increased production of tryptophan in E. coli cells (Zeman et al. Folia Microbiol. 35:200-204, (1990)), was prepared as follows. To 800 mL nanopure water the following reagents were added: 2 g (NH4)2SO4 and 13.6 g KH2PO4. The pH was adjusted to 7.0, the volume was increased to 948 mL, and the medium was autoclaved. Following sterilization, 0.2 g MgSO4.7H2O, 0.01 g CaCl2.2H2O, and 0.5 mg FeSO4.7H2O were ad to the medium in a 1.8 mL volume followed by addition of 0.2 mL of Neidhardt's micronutrient solution. Neidhardt, F. C., et al., “Culture medium for Enterobacteria,” J. Bacteriol. 119:736-746 (1974). Neidhardt's medium includes (per liter): 0.18 g (NH4)6(MO7)24.4H2O, 1.24 g H3BO3, 0.36 g CoCl2.6H2O, 0.12 g CuSO4 (anhydrous), 0.8 g MnCl2.4H2O, and 0.14 g ZnSO4.7H2O. A 50% glucose solution was prepared separately and sterile-filtered. Forty mL of glucose solution and 10 mL of 1 M 3-Morpholinopropanesulfonic acid (“MOPS”) buffer were added to the base medium (950 mL) for a 1 L final volume.
Conditions for the treatments included 250 rpm agitation throughout and 37° C. up to induction, then, 30° C. following induction. At an OD600 nm between 0.44-0.52, induction of the plasmid genes was initiated. At induction, 1.0 mM IPTG, 0.5 mM pyridoxine hydrochloride, and 0.2 mL's of Balch's vitamins were added. Additions of 10 g/L L-tryptophan, 10 g/L sodium pyruvate, 0.04 mM pyridoxal-5′-phosphate (“PLP”) and 0.2% Tween® 20 (polyoxyethylene 20-sorbitan monolaurate) were made 3.0 hours following induction. At 3 hours after the initial feeding of pyruvate, another 10 g/L of sodium pyruvate was added to each flask. Some treatments included 2.5 mM sodium decanoate (or sterile, distilled water for the 0 mM decanoate treatment) addition at 3.0 hours following induction.

[1] = ΔAcrAB::aspC proA pProNde del robA pUC19, n = 2
[2] = ΔAcrAB::aspC proA pProNde del, ramA pUC19, n = 2
[3] = ΔAcrAB::aspC proA pProNdedel, pUC19 (control), n = 2
[4] = ΔacrAB AspC ProA pProNde del BaeR pUC19, n = 2
[5] = E. coli BL21 DE3 aspC proA pET32
[6] = E. coli BL21 DE3 ΔcysH::aspC proA pET32

With `CCCCCCCCCC(=O)[O-].[Na+]` [sodium decanoate] the “Monatin/dcw, 24 hours” value (E. coli MG1655 ΔAcrAB; [1]) was 45.7 mg/g, the “Monatin/dcw, 30 hours” value (E. coli MG1655 ΔAcrAB; [1]) was 58.6 mg/g and the “Monatin/dcw, 48 hours” value (E. coli MG1655 ΔAcrAB; [1]) was 81.7 mg/g. For the same molecule, the “Monatin/dcw, 24 hours” value (E. coli MG1655 ΔAcrAB; [2]) was 32.3 mg/g, the “Monatin/dcw, 30 hours” value (E. coli MG1655 ΔAcrAB; [2]) was 41.7 mg/g and the “Monatin/dcw, 48 hours” value (E. coli MG1655 ΔAcrAB; [2]) was 61.1 mg/g. The “Monatin/dcw, 24 hours” value (E. coli MG1655 ΔAcrAB; [3]) was 10.7 mg/g, the “Monatin/dcw, 30 hours” value (E. coli MG1655 ΔAcrAB; [3]) was 29.7 mg/g and the “Monatin/dcw, 48 hours” value (E. coli MG1655 ΔAcrAB; [3]) was 39.3 mg/g. For the same molecule, the “Mean monatin per dry cell weight, 24 hours” value (E. coli MG1655 ΔAcrAB; [4]) was 34.4 mg/g, the “Mean monatin per dry cell weight, 30 hours” value (E. coli MG1655 ΔAcrAB; [4]) was 85.0 mg/g and the “Mean monatin per dry cell weight, 48 hours” value (E. coli MG1655 ΔAcrAB; [4]) was 137.3 mg/g. For the same molecule, the “Monatin/dry cell wt., 24 hours” value (E. coli BL21 DE3; [5]) was 70.9 mg/g, the “Monatin/dry cell wt., 30 hours” value (E. coli BL21 DE3; [5]) was 75.0 mg/g and the “Monatin/dry cell wt., 48 hours” value (E. coli BL21 DE3; [5]) was 44.0 mg/g. For the same molecule, the “Monatin/dry cell wt., 24 hours” value (E. coli BL21 DE3; [6]) was 115.0 mg/g, the “Monatin/dry cell wt., 30 hours” value (E. coli BL21 DE3; [6]) was 103.1 mg/g and the “Monatin/dry cell wt., 48 hours” value (E. coli BL21 DE3; [6]) was 73.3 mg/g.
